{
  "source": "patent US4849410A",
  "about": "“Pseudopterosin and synthetic derivatives thereof” (The Regents of the University of California, priority 1987, dated 1989)",
  "key": {"[1]": {"system": "Phorbol Myristate Acetate (PMA) Induced Topical Inflammation of the Mouse Ear", "experiment": "Mouse Ear Anti-Inflammatory Assay (PMA, topical)", "assay_type": "in vivo", "details": "for Ear Weight Mean ± S.E.M.: PMA 1.5 ug", "description": "a. Mouse Ear Anti-Inflammatory Assay\nTest compound and phorbol myristate acetate (PMA) are topically applied simultaneously to the pinnae of the ears of mice. Three hours twenty minutes after application, mice are sacrificed, ears removed and standard sized bores taken. Edema (inflammation) is measured as the difference in weight between control and treated ears.\nThe vheicle or carrier for the compounds used in the inflammatory and analgesic assays was as follows; For the mouse ear inflammatory assay, the vehicle was acetone. Controls received 25 microliters of acetone. Test compounds were applied to the experimental animals in 25 microliter volumes. For the sperm motility and fertilized sea urchin egg assays, the compounds were dissolved in 10 microliters undenatured ethanol."}, "P388 leukemia": {"system": "P388 leukemia", "experiment": "Evaluation in mice bearing ip P388 leukemia", "assay_type": "in vivo, female B6D2F1 mice", "details": "for Increase to Lifespan / Median Survival Time / Weight Change Day 5 / Weight Change Day 9: Days 1-5", "description": "Compound I was also evaluated in mice bearing P388 Leukemia as follows:\nCompound I was administered to the mice as a solution by first dissolving it in N,N-dimethylacetamide, adding an equal volume of Cremophor EL and then 8 volumes of water. The drug concentration was such that the desired dose was delivered in a volume of 0.5 ml per mouse. Dilutions from the highest dose in a dose-response study were made by the addition of water so that organic component of the formulation decreased with dose reduction; the drug remained in solution.\n10^6 P388 leukemia cells were implanted intraperitoneal in female B6D2F1 mice which were randomized to treatment groups of six animals each. Treatment was initiated 24 hours after tumor implantation and was continued daily for five days (Cisplatin was administered on Days 1 and 5 for the Group 1 mice). Mice were weighted as groups on Days 1, 5 and 9 to provide an indication of drug toxicity. Mice were monitored for survival daily for 45 days, and the median day of death was determined compared to three groups of untreated controls to provide percent increase in lifespan (ILS). ILS values of greater than or equal to 40 percent represent actual reduction in tumor cell burden during the course of treatment and are taken as indications of biologically significant antitumor effect."}, "[2]": {"experiment": "CNS activity and toxicity in the comparative tests", "details": "during the anti-inflammatory assay"}, "[3]": {"system": "PMA induced swelling of the mouse ear", "experiment": "Anti-Inflammatory Assay (topical administration)", "assay_type": "in vivo, mice", "description": "Anti-Inflammatory (topical administration)\n2 ug PMA was applied in 25 ul of acetone of the inner surface of the left ear, the right ear is treated with solvent only. […] 200 minutes after PMA treatment, the mice were killed by cervical dislocation and both ears were cut off, punched with a #4 cork borer and weighed. The swelling induced by PMA was calculated as the mean increase in the weight of the left ear minus the right ear. The pecent inhibition of edema was calculated as control-drug/control×100. […] ED50 values were estimated by the method of Litchfield and Wilcoxon."}, "[4]": {"experiment": "Side effects, subcutaneous administration to mice", "assay_type": "in vivo", "from_the_text": "The following side effect of pseudopterosin A (Compound I) was observed."}, "[5]": {"details": "12.5 mg/kg to 50 mg/kg subcutaneously"}},
  "data": [
    {"smiles": "CC(C)=C[C@H]1C[C@H](C)[C@H]2CC[C@H](C)c3c(O[C@@H]4OC[C@@H](O)[C@H](O)[C@H]4O)c(O)c(C)c1c32", "note": "[Compound I, pseudopterosin A]", "values": [
      {"measurement": "decrease in edema", "setting": "[1]; 50 microgram", "value": 69, "unit": "%"},
      {"measurement": "Ear Weight Mean ± S.E.M.", "setting": "[1]; 6.25 ug/ear", "value": "16.78 ± 0.91", "unit": "mg"},
      {"measurement": "Ear Weight Mean ± S.E.M.", "setting": "[1]; 12.5 ug/ear", "value": "14.99 ± 0.6", "unit": "mg"},
      {"measurement": "Ear Weight Mean ± S.E.M.", "setting": "[1]; 25.0 ug/ear", "value": "13.18 ± 0.53", "unit": "mg"},
      {"measurement": "Ear Weight Mean ± S.E.M.", "setting": "[1]; 50.0 ug/ear", "value": "12.47 ± 0.46", "unit": "mg"},
      {"measurement": "Ear Weight Mean ± S.E.M.", "setting": "[1]; 100.0 ug/ear", "value": "11.70 ± 0.37", "unit": "mg"},
      {"measurement": "Anti-inflammatory Activity", "setting": "[1]; summary", "value": "Active"},
      {"measurement": "Increase to Lifespan", "setting": "P388 leukemia; Group 2, 7.9 mg/kg ip", "value": 10, "unit": "%"},
      {"measurement": "Median Survival Time", "setting": "P388 leukemia; Group 2, 7.9 mg/kg ip", "value": 11, "unit": "days"},
      {"measurement": "Weight Change Day 5", "setting": "P388 leukemia; Group 2, 7.9 mg/kg ip", "value": "+1.1 gm"},
      {"measurement": "Weight Change Day 9", "setting": "P388 leukemia; Group 2, 7.9 mg/kg ip", "value": "+3.6 gm"},
      {"measurement": "Increase to Lifespan", "setting": "P388 leukemia; Group 2, 11.9 mg/kg ip", "value": 15, "unit": "%"},
      {"measurement": "Median Survival Time", "setting": "P388 leukemia; Group 2, 11.9 mg/kg ip", "value": 11.5, "unit": "days"},
      {"measurement": "Weight Change Day 5", "setting": "P388 leukemia; Group 2, 11.9 mg/kg ip", "value": "+0.7 gm"},
      {"measurement": "Weight Change Day 9", "setting": "P388 leukemia; Group 2, 11.9 mg/kg ip", "value": "+2.5 gm"},
      {"measurement": "Increase to Lifespan", "setting": "P388 leukemia; Group 2, 17.8 mg/kg ip", "value": 15, "unit": "%"},
      {"measurement": "Median Survival Time", "setting": "P388 leukemia; Group 2, 17.8 mg/kg ip", "value": 11.5, "unit": "days"},
      {"measurement": "Weight Change Day 5", "setting": "P388 leukemia; Group 2, 17.8 mg/kg ip", "value": 0, "unit": "gm"},
      {"measurement": "Weight Change Day 9", "setting": "P388 leukemia; Group 2, 17.8 mg/kg ip", "value": "+2.8 gm"},
      {"measurement": "Increase to Lifespan", "setting": "P388 leukemia; Group 2, 26.7 mg/kg ip", "value": 25, "unit": "%"},
      {"measurement": "Median Survival Time", "setting": "P388 leukemia; Group 2, 26.7 mg/kg ip", "value": 12.5, "unit": "days"},
      {"measurement": "Weight Change Day 5", "setting": "P388 leukemia; Group 2, 26.7 mg/kg ip", "value": -0.7, "unit": "gm"},
      {"measurement": "Weight Change Day 9", "setting": "P388 leukemia; Group 2, 26.7 mg/kg ip", "value": "+3.4 gm"},
      {"measurement": "Increase to Lifespan", "setting": "P388 leukemia; Group 2, 40 mg/kg ip", "value": 30, "unit": "%"},
      {"measurement": "Median Survival Time", "setting": "P388 leukemia; Group 2, 40 mg/kg ip", "value": 13, "unit": "days"},
      {"measurement": "Weight Change Day 5", "setting": "P388 leukemia; Group 2, 40 mg/kg ip", "value": -2.1, "unit": "gm"},
      {"measurement": "Weight Change Day 9", "setting": "P388 leukemia; Group 2, 40 mg/kg ip", "value": "+2.2 gm"},
      {"measurement": "Increase to Lifespan", "setting": "P388 leukemia; Group 2, 60 mg/kg ip", "value": 65, "unit": "%"},
      {"measurement": "Median Survival Time", "setting": "P388 leukemia; Group 2, 60 mg/kg ip", "value": 16.5, "unit": "days"},
      {"measurement": "Weight Change Day 5", "setting": "P388 leukemia; Group 2, 60 mg/kg ip", "value": -3.2, "unit": "gm"},
      {"measurement": "Weight Change Day 9", "setting": "P388 leukemia; Group 2, 60 mg/kg ip", "value": -0.5, "unit": "gm"},
      {"measurement": "Increase to Lifespan", "setting": "P388 leukemia; Group I, 1.5 mg/kg ip", "value": 27, "unit": "%"},
      {"measurement": "Median Survival Time", "setting": "P388 leukemia; Group I, 1.5 mg/kg ip", "value": 14, "unit": "days"},
      {"measurement": "Weight Change Day 5", "setting": "P388 leukemia; Group I, 1.5 mg/kg ip", "value": "+0.1 gm"},
      {"measurement": "Weight Change Day 9", "setting": "P388 leukemia; Group I, 1.5 mg/kg ip", "value": "+4.6 gm"},
      {"measurement": "Increase to Lifespan", "setting": "P388 leukemia; Group I, 3 mg/kg ip", "value": 27, "unit": "%"},
      {"measurement": "Median Survival Time", "setting": "P388 leukemia; Group I, 3 mg/kg ip", "value": 14, "unit": "days"},
      {"measurement": "Weight Change Day 5", "setting": "P388 leukemia; Group I, 3 mg/kg ip", "value": "+0.4 gm"},
      {"measurement": "Weight Change Day 9", "setting": "P388 leukemia; Group I, 3 mg/kg ip", "value": "+4.2 gm"},
      {"measurement": "Increase to Lifespan", "setting": "P388 leukemia; Group I, 6 mg/kg ip", "value": 36, "unit": "%"},
      {"measurement": "Median Survival Time", "setting": "P388 leukemia; Group I, 6 mg/kg ip", "value": 15, "unit": "days"},
      {"measurement": "Weight Change Day 5", "setting": "P388 leukemia; Group I, 6 mg/kg ip", "value": "+0.7 gm"},
      {"measurement": "Weight Change Day 9", "setting": "P388 leukemia; Group I, 6 mg/kg ip", "value": "+2.9 gm"},
      {"measurement": "Increase to Lifespan", "setting": "P388 leukemia; Group I, 12 mg/kg ip", "value": 45, "unit": "%"},
      {"measurement": "Median Survival Time", "setting": "P388 leukemia; Group I, 12 mg/kg ip", "value": 16, "unit": "days"},
      {"measurement": "Weight Change Day 5", "setting": "P388 leukemia; Group I, 12 mg/kg ip", "value": -2.6, "unit": "gm"},
      {"measurement": "Weight Change Day 9", "setting": "P388 leukemia; Group I, 12 mg/kg ip", "value": "+1.3 gm"},
      {"measurement": "Increase to Lifespan", "setting": "P388 leukemia; Group I, 24 mg/kg ip", "value": 82, "unit": "%"},
      {"measurement": "Median Survival Time", "setting": "P388 leukemia; Group I, 24 mg/kg ip", "value": 20, "unit": "days"},
      {"measurement": "Weight Change Day 5", "setting": "P388 leukemia; Group I, 24 mg/kg ip", "value": "+0.4 gm"},
      {"measurement": "Weight Change Day 9", "setting": "P388 leukemia; Group I, 24 mg/kg ip", "value": -0.6, "unit": "gm"},
      {"measurement": "maximally tolerated dose", "setting": "P388 leukemia; a daily dose in this range, from weight loss", "value": "~60", "unit": "mg/kg/day"},
      {"measurement": "activity in mice bearing intraperitoneal P388 leukemia", "setting": "P388 leukemia; mouse, in vivo, ip", "value": "demonstrated reproducible activity"},
      {"measurement": "activity in mice bearing intraperitoneal P388 leukemia", "setting": "P388 leukemia; second group, 60 mg/kg/day", "value": "significant activity"},
      {"measurement": "activity in mice bearing intraperitoneal P388 leukemia", "setting": "P388 leukemia; second group, dose similar to 24 mg/kg/day", "value": "ineffective"},
      {"measurement": "CNS stimulation", "setting": "[2]", "value": "exhibited the CNS stimulation"},
      {"measurement": "% Inhibition (edema)", "setting": "[3]; 6.25 ug/ear", "value": 28.8, "unit": "%"},
      {"measurement": "% Inhibition (edema)", "setting": "[3]; 12.5 ug/ear", "value": 78.3, "unit": "%"},
      {"measurement": "% Inhibition (edema)", "setting": "[3]; 25 ug/ear", "value": 89.5, "unit": "%"},
      {"measurement": "% Inhibition (edema)", "setting": "[3]; 50 ug/ear", "value": 96.0, "unit": "%"},
      {"measurement": "ED50", "setting": "[3]; 50% inhibition of inflammation, n = 10 mice/dose", "value": 8.3, "unit": "ug/ear"},
      {"measurement": "duration of side effects", "setting": "[4]; [5]", "value": "last up to one hour"},
      {"measurement": "onset of side effects", "setting": "[4]; [5]", "value": "within a few minutes of administration"},
      {"measurement": "side effects", "setting": "[4]; 12.5 mg/kg to 50 mg/kg subcutaneously, sesame oil", "value": "central nervous system excitation, brief involuntary muscle contraction of the hind limbs resulting in lateral jumping movements, excessive preening of wound sites, and flushing of the tail and ears"},
      {"measurement": "side effects", "setting": "[4]; doses as low as 3 mg/kg", "value": "slight to moderate central nervous system excitation"}
    ]}
  ]
}
